Test [1] in a line: NFkB reporter suppression in cystic fibrosis bronchial cells – cell-based, uHTS hits, panel, cytotoxicity readout, dose response (AID 624344). The conditions noted are these: CF bronchial epithelial cells, PAF-induced NFkB reporter inhibition; with PAF, mean of runs.
Test [2] concerns Cytotoxicity. The description is as above. The conditions noted are these: CF bronchial epithelial cells, mean of runs.

Activity calls are given as the source filed them. No rule for the calls is given here. Some results are limits rather than exact numbers.

As usually defined, the IC50 is the concentration needed to halve the response being measured. For the molecule `Cc1cccc(NC(=O)c2nc(S(=O)(=O)Cc3ccccc3)ncc2Cl)c1`, the figures for the IC50 in test [1] and in test [2] were 2.51 µM and 3.39 µM, respectively.
The like results for `O=C(CC12CC3CC(CC(C3)C1)C2)Nc1nncs1` were, in that order, “inactive” and 54.5 µM (inactive).
The corresponding values for `Cc1ccnc(NC(=O)Cc2ccc(-c3ccccc3)cc2)c1` are 9.06 µM and 47.8 µM.
As to `Cc1ccc(-n2cc(-c3ccccc3)c3c(N4CCOCC4)ncnc32)cc1`, the values for the IC50 in test [1] and in test [2] were 3.49 µM and 3.85 µM, respectively.
For `O=C(/C=C/c1cccc([N+](=O)[O-])c1)NC(=S)Nc1ccc(CN2CCOCC2)cc1`, the half-inhibitory concentration (IC50) in test [1] is 5.19 µM; in test [2], 19.8 µM.
As to `Oc1ccc(Cl)cc1Cc1cc(Cl)ccc1O`, the IC50 in test [1] is 6.19 µM; in test [2], 25.2 µM.
Regarding `COc1ccc(-c2cn[nH]c2-c2ccc(O)cc2O)cc1`, the IC50 in test [1] was 1.76 µM; in test [2] it was > 79 µM (inactive).
Regarding `Cc1ccc(S(=O)(=O)CC(CN2CCCCC2)N2CCCCC2)cc1` (stereo not drawn), the values for the IC50 in test [1] and in test [2] were 6.85 µM and 33.3 µM, respectively.
As for `COc1ccc(S(=O)(=O)N2c3cc(C)ccc3OCC2C(C)(C)C)cc1` (stereo not drawn), the IC50 in test [1] is 6.36 µM; in test [2], > 79 µM (inactive).
Take `COc1cccc2c(SCC(=O)N/N=C/c3ccccc3)cc(C)nc12`: the results for the IC50 in test [1] and in test [2] were 6.95 µM and 38.6 µM, respectively.
The corresponding values for `O=C(NCCN1CCN(c2ccccc2)CC1)c1cccc(Br)c1` are 18.9 µM and 57.4 µM (inactive).
The corresponding values for `O=C(c1[nH]c(C(F)(F)F)nc1-c1ccccc1)N1CCN(c2c(Cl)cncc2Cl)CC1` are 10.4 µM and > 79 µM (inactive).
Turning to `COc1ccccc1/C=C/C(=O)c1c2c(c(C)[nH]c1=O)CCCC2`, the figures for the IC50 in test [1] and in test [2] were 2.94 µM and 41.6 µM, respectively.
In the case of `COc1cc(-c2cc(C(=O)Nc3ccc(S(=O)(=O)NCc4ccco4)cc3)c3ccccc3n2)cc(OC)c1OC`, the IC50 was 3.96 µM in test [1] and 7.44 µM in test [2].
For `NC(=O)c1nsc(C(=O)N(c2ccccc2)C(C(=O)NCc2ccc(F)cc2)c2ccc(O)cc2)c1N` (stereo not drawn), the IC50 in test [1] was 4.75 µM; in test [2] it was 8.81 µM.
As for `Cc1ccc(-c2n[nH]c(=S)n2/N=C/c2ccncc2)cc1`, the IC50 is 2.63 µM in test [1] and 53.1 µM (inactive) in test [2].
For the molecule `Cc1ccc(S(=O)(=O)n2cc(-c3ccccc3)c3ccccc32)cc1`, the IC50 in test [1] is 5.53 µM; in test [2] it was > 79 µM (inactive).
For the molecule `Cc1ccc(NC(=O)/C=C/c2ccco2)nc1`, the IC50 in test [1] was 8.27 µM; in test [2], > 79 µM (inactive).
In the case of `COc1ccc2[nH]c3c(c2c1)CC(C)NC3=O` (stereo not drawn), the results for the IC50 in test [1] and in test [2] were 1.3 µM and 55.3 µM (inactive), respectively.
On to `CCOC(=O)Oc1c(OC)cc(C(=O)O[C@@H]2C[C@@H]3CN4CCc5c([nH]c6cc(OC)ccc56)[C@H]4C[C@@H]3[C@H](C(=O)OC)[C@H]2OC)cc1OC`, for which the IC50 in test [1] was 4.91 µM; in test [2], 58.8 µM (inactive).
For the molecule `CC(C)c1nc(Cl)c(C#N)c2c1CCCC2`, the IC50 was 3.57 µM in test [1] and 71.6 µM (inactive) in test [2].
For the molecule `Cc1ccc(C(=O)Nc2cccc(C(F)(F)F)c2)cc1NC(=O)c1nccnc1N`, the IC50 in test [1] is 8.15 µM; in test [2], 9.52 µM.
With `Nc1nc(/C=C/c2cccnc2)nc(-c2ccccc2O)n1`, the values for the half-maximal inhibitory concentration (IC50) in test [1] and in test [2] were 4.73 µM and 6.48 µM, respectively.
In the case of `CCOc1ccc(Nc2ncnc3ccc([N+](=O)[O-])cc23)cc1`, the half-inhibitory concentration (IC50) was 1.67 µM in test [1] and 21.4 µM in test [2].
Consider `CCc1ccc(Nc2n[n+](-c3ccccc3)c(-c3c(Cl)cccc3Cl)s2)cc1`, for which the IC50 in test [1] was 5.47 µM; in test [2], 6.29 µM.
With `COc1cncc(-c2cnc3sc(NCCc4ccccn4)nn23)c1`, the results for the half-inhibitory concentration (IC50) in test [1] and in test [2] were 1.53 µM and > 79 µM (inactive), respectively.
As for `O=C(NNc1ccccc1Cl)C(O)(c1cccc(C(F)(F)F)c1)c1cccc(C(F)(F)F)c1`, the IC50 is 13.3 µM in test [1] and 7.25 µM in test [2].
On to `CCCCCCc1cc2cc(C(=O)Nc3ccccc3OC)c(=O)oc2cc1O`, for which the IC50 entry in test [1] is “inactive”. Also, the concentration for half-maximal inhibition (IC50) in test [2] was 49.4 µM.
Turning to `COc1ccc(N=Cc2cc3c(cc2O)OC(N)=C(C#N)C3c2ccccc2)cc1` (stereo not drawn), the figures for the IC50 in test [1] and in test [2] were 3.4 µM and 59.8 µM (inactive), respectively.
Turning to `N#Cc1ccsc1NC(=O)c1ccc(Cl)c([N+](=O)[O-])c1`, the IC50 in test [1] was 4.95 µM; in test [2] it was 18.4 µM.
Consider `CC(=O)OCCN1c2ccccc2Sc2cnccc21`, for which the IC50 was 4.33 µM in test [1] and 63.5 µM (inactive) in test [2].
With `CCC1=Nc2cc(C(=O)NCc3ccco3)ccc2Sc2ccc(C)cc21`, the 50% inhibitory concentration (IC50) was 11.7 µM in test [1] and 57.9 µM (inactive) in test [2].
Consider `COc1ccc2c(c1OC)C(=O)N1c3ccccc3C(=O)N(c3ccccc3)C21` (stereo not drawn), for which the results for the IC50 in test [1] and in test [2] were 0.902 µM and 2.94 µM, respectively.
On to `O=C(Nc1cccc(Cl)c1)Nc1cc(S(=O)(=O)N2CCCCC2)ccc1Cl`, for which the IC50 in test [1] was 6.4 µM; in test [2], 9.07 µM.

These data come from PubChem BioAssay AID624344 (Sanford-Burnham Center for Chemical Genomics, 2012).
